Data from patent US11022605B2 (priority 2016, dated 2021).

Columns and labels:
[1] = in vivo; cited from earlier work
[2] = test system: neuromuscular junction model (motoneurons synapsed onto skeletal muscle); type: cell-based
[3] = test system: colon cancer; conditions: cited from earlier work

Molecule: CC1(C)C(C=C(Cl)Cl)C1C(=O)OCc1cccc(Oc2ccccc2)c1 (stereo not drawn) [1R-cis-, permethrin]
- activity of stereoisomer [1]: active

Molecule: curare
- dip frequency sensitivity [2]: approximately exponential
- effect on contractile response [2]: inhibitory based on concentration
- form of fitted dose-response curve of muscle contraction [2]: biphasic curve
- plateau region of biphasic curve versus stimulation frequency [2]: shrinks exponentially for increasing frequency

Molecule: CC1(C)C(C=C(Cl)Cl)C1C(=O)OCc1cccc(Oc2ccccc2)c1 (stereo not drawn) [1R-trans-, permethrin]
- activity of stereoisomer [1]: active

Molecule: CC1(C)C(C=C(Cl)Cl)C1C(=O)OCc1cccc(Oc2ccccc2)c1 (stereo not drawn) [cis-permethrin]
- toxicity relative to trans isomers [1]: about ten times more toxic

Molecule: O=c1cc[nH]c(=O)[nH]1 [uracil]
- effect on toxicity of Tegafur [3]: enhances the toxicity of Tegafur

Molecule: O=c1[nH]c(=O)n(C2CCCO2)cc1F (stereo not drawn) [Tegafur]
- optimal uracil to Tegafur ratio for maximizing 5-FU in the tumor relative to blood [3]: 4 to 1
